Test systems include SNB-75; LOX IMVI; SF-295; PC-3; HT-29; SN12C; NCI-H226; SF-539; MDA-N; TK-10; IGROV-1; COLO 205; CAKI-1; SK-OV-3; UO-31; BT-549; M14; SK-MEL-2; NCI-H23; MDA-MB-435.
Assay in all cases: NCI anticancer screen, dose series, 48 h

Molecules are shown by their SMILES.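 Step 1: Grow cells in 96-well plates. Step 2: Expose to compound for 48 hours at 5 concentrations. Step 3: Interpolate endpoints linearly; if unreached, use highest concentration. Here, GI50 denotes the concentration required for 50% inhibition of growth.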 Activity calls are given as the source filed them. No stated cut-off is given here; in the data, active = GI50 up to about 1.1 µM and inactive = higher.

With `C=C(C)C1Cc2c(cc(OC)c3c(=O)c4cccc(O)c4oc23)O1` (configuration not stated), the GI50 in the experiment with SNB-75 is 16.3 µM (inactive); with LOX IMVI, 5.7 µM (inactive); in the experiment with SF-295, 17.3 µM (inactive); with PC-3 it was 38.2 µM (inactive); in the experiment with HT-29, 67.1 µM (inactive); in the experiment with SN12C it was 28.6 µM (inactive). Further, the GI50 was 21.2 µM (inactive) with NCI-H226; 18.4 µM (inactive) in the experiment on SF-539; 20 µM (inactive) with MDA-N; 19.9 µM (inactive) in the experiment with TK-10; 18.4 µM (inactive) in the experiment on IGROV-1; 56.9 µM (inactive) in the experiment with COLO 205. The GI50 in the experiment with CAKI-1 is 16.6 µM (inactive); in the experiment on SK-OV-3, 19.5 µM (inactive); in the experiment on UO-31, 18 µM (inactive); in the experiment on BT-549 it was 17.9 µM (inactive); in the experiment with M14, 24.1 µM (inactive); in the experiment on SK-MEL-2 it was 18.6 µM (inactive). Besides, the GI50 in the experiment on NCI-H23 was 26 µM (inactive).
Consider `COC(=O)c1c2c(c3[nH]c4ccccc4c3c1C(=O)OC)C(=O)C1=C(C2=O)C2(Cl)C(Cl)C(Cl)C1(Cl)C2(Cl)Cl` (configuration not stated), for which the GI50 is 2.39 µM (inactive) in the experiment with SNB-75; 1.85 µM (inactive) with LOX IMVI; 3.63 µM (inactive) with SF-295; 1.86 µM (inactive) in the experiment with PC-3; 2.55 µM (inactive) in the experiment on HT-29; 1.94 µM (inactive) in the experiment on SN12C. Also, the GI50 in the experiment on SF-539 is 2.07 µM (inactive); in the experiment on MDA-N, 0.6 µM (active); in the experiment with TK-10, 3.56 µM (inactive); in the experiment on IGROV-1 it was 2.69 µM (inactive); with COLO 205 it was 1.81 µM (inactive); in the experiment on CAKI-1, 3.18 µM (inactive). Moreover, the GI50 in the experiment on SK-OV-3 is 4.36 µM (inactive); in the experiment with MDA-MB-435 it was 1.07 µM (active); in the experiment on UO-31 it was 2.82 µM (inactive); in the experiment on BT-549, 1.96 µM (inactive); in the experiment on M14, 1.46 µM (inactive); with NCI-H23, 1.7 µM (inactive).
With `Cn1c(=O)cc(N2CCCC2)[nH]c1=O`, the GI50 with SNB-75, with LOX IMVI, in the experiment with SF-295, in the experiment with PC-3, with HT-29 and in the experiment on SN12C was > 100 µM (inactive) each time. Besides, the GI50 in the experiment on NCI-H226, in the experiment on SF-539, in the experiment on TK-10, with IGROV-1, in the experiment on COLO 205 and in the experiment with CAKI-1 was > 100 µM (inactive) throughout. Also, the GI50 with MDA-MB-435, in the experiment with BT-549, in the experiment with M14, with SK-MEL-2 and with NCI-H23 was > 100 µM (inactive) each time.
In the case of `OC[C@@H](O)[C@H](O)[C@@H](O)/C=N/Nc1ccc(Cl)nn1`, the GI50 in the experiment on LOX IMVI, in the experiment on SF-295, in the experiment with PC-3, in the experiment with HT-29, in the experiment on SN12C and with SF-539 was > 100 µM (inactive) each time. The GI50 in the experiment on MDA-N, with TK-10, with IGROV-1, in the experiment on COLO 205, in the experiment with CAKI-1 and in the experiment with SK-OV-3 was > 100 µM (inactive) throughout. Besides, the GI50 with MDA-MB-435, in the experiment with BT-549, in the experiment on M14, in the experiment on SK-MEL-2 and in the experiment with NCI-H23 was > 100 µM (inactive) in each case.
Consider `NN/C(=N\c1ccc(Cl)cc1)NS(=O)(=O)c1ccc(S(=O)(=O)c2ccccc2)s1`, for which the GI50 in the experiment with LOX IMVI is 15.3 µM (inactive); in the experiment on SF-295, 8.79 µM (inactive); in the experiment on PC-3, 25.5 µM (inactive); in the experiment on HT-29 it was 18.6 µM (inactive); in the experiment on SN12C it was 22.6 µM (inactive); in the experiment on NCI-H226 it was 40.6 µM (inactive). The GI50 in the experiment with SF-539 was 39.4 µM (inactive); in the experiment on MDA-N, 13.7 µM (inactive); in the experiment on TK-10, 26.7 µM (inactive); in the experiment with IGROV-1, 19 µM (inactive); with COLO 205, 17 µM (inactive); with CAKI-1, 27.7 µM (inactive). For the same molecule, the GI50 with SK-OV-3 was 71.9 µM (inactive); in the experiment with UO-31, 23.7 µM (inactive); in the experiment on BT-549 it was 26.4 µM (inactive); in the experiment with M14, 15.8 µM (inactive); in the experiment with SK-MEL-2 it was 19.1 µM (inactive); in the experiment on NCI-H23, 20.4 µM (inactive).
With `c1coc(-c2nccc3c2[nH]c2ccccc23)c1`, the GI50 with LOX IMVI is > 100 µM (inactive); with SF-295, > 100 µM (inactive); in the experiment with PC-3, > 100 µM (inactive); in the experiment with HT-29, > 100 µM (inactive); in the experiment with SN12C, > 100 µM (inactive); with NCI-H226, 29.1 µM (inactive). The GI50 with SF-539 is > 100 µM (inactive); in the experiment on MDA-N it was > 100 µM (inactive); in the experiment on TK-10 it was > 100 µM (inactive); in the experiment with IGROV-1, > 100 µM (inactive); in the experiment with COLO 205 it was 17.5 µM (inactive); in the experiment with CAKI-1 it was > 100 µM (inactive). For the same molecule, the GI50 in the experiment with SK-OV-3, in the experiment with MDA-MB-435, in the experiment on M14, in the experiment with SK-MEL-2 and with NCI-H23 was > 100 µM (inactive) throughout.
As to `Cn1cc(S(=O)(=O)NC(=O)Nc2ccc(Cl)cc2)c(=O)c2ccc(F)cc21`, the GI50 with SNB-75 is > 100 µM (inactive); with LOX IMVI, 22.6 µM (inactive); in the experiment on SF-295, > 100 µM (inactive); in the experiment with PC-3, > 100 µM (inactive); in the experiment with HT-29, > 100 µM (inactive); in the experiment with SN12C, > 100 µM (inactive). In addition, the GI50 in the experiment with NCI-H226 is > 100 µM (inactive); in the experiment on SF-539, > 100 µM (inactive); in the experiment on MDA-N it was 64.3 µM (inactive); in the experiment with TK-10 it was > 100 µM (inactive); in the experiment on IGROV-1 it was > 100 µM (inactive); with COLO 205, > 100 µM (inactive). Moreover, the GI50 with CAKI-1, in the experiment on SK-OV-3, in the experiment on MDA-MB-435, in the experiment on UO-31, with SK-MEL-2 and with NCI-H23 was > 100 µM (inactive) in each case.
For the molecule `O=C1/C(=C/c2cccs2)NC(=S)N1CN1CCOCC1`, the GI50 with SNB-75, with LOX IMVI, with SF-295, in the experiment with PC-3, in the experiment on HT-29 and in the experiment on SN12C was > 100 µM (inactive) in each case. The GI50 was > 100 µM (inactive) in the experiment on NCI-H226; > 100 µM (inactive) with MDA-N; 34.1 µM (inactive) in the experiment on TK-10; > 100 µM (inactive) with IGROV-1; > 100 µM (inactive) in the experiment on COLO 205; > 100 µM (inactive) in the experiment on SK-OV-3. The GI50 with MDA-MB-435, with UO-31, in the experiment with M14, with SK-MEL-2 and in the experiment on NCI-H23 was > 100 µM (inactive) in each case.
Turning to `COc1ccc(C(=O)/C=C/c2ccc(OCCCOc3ccc(/C=C/C(=O)c4ccc(OC)cc4)cc3)cc2)cc1`, the GI50 in the experiment with SNB-75 is 45.4 µM (inactive); in the experiment on SF-295, > 100 µM (inactive); in the experiment with PC-3, > 100 µM (inactive); with HT-29 it was 56.1 µM (inactive); in the experiment on SN12C, > 100 µM (inactive); in the experiment on NCI-H226 it was > 100 µM (inactive). The GI50 in the experiment on SF-539 was 28.8 µM (inactive); in the experiment on MDA-N it was > 100 µM (inactive); in the experiment with TK-10 it was > 100 µM (inactive); with IGROV-1, > 100 µM (inactive); with COLO 205, > 100 µM (inactive); with CAKI-1, > 100 µM (inactive). The GI50 in the experiment on SK-OV-3, in the experiment with MDA-MB-435, in the experiment with UO-31, in the experiment with M14 and in the experiment with SK-MEL-2 was > 100 µM (inactive) each time.
On to `O=c1[nH]nc(Nc2ccc(Cl)cc2)c2nnn(-c3ccc([N+](=O)[O-])cc3)c12`, for which the GI50 is 39.8 µM (inactive) in the experiment with SNB-75; 14.5 µM (inactive) in the experiment with LOX IMVI; 25.3 µM (inactive) in the experiment on SF-295; 18.3 µM (inactive) with PC-3; 25.4 µM (inactive) with HT-29; 26.9 µM (inactive) with SN12C. The GI50 in the experiment on NCI-H226 is 42.1 µM (inactive); with SF-539 it was 17.5 µM (inactive); in the experiment with TK-10, 24.7 µM (inactive); in the experiment on IGROV-1, 31.6 µM (inactive); in the experiment with COLO 205, 13.3 µM (inactive); in the experiment with CAKI-1, 39.5 µM (inactive). Besides, the GI50 in the experiment with MDA-MB-435 is 30.1 µM (inactive); with BT-549 it was 19.2 µM (inactive); with M14, 49.4 µM (inactive); in the experiment on SK-MEL-2, 24.2 µM (inactive); in the experiment on NCI-H23, 8.59 µM (inactive).
`CCCCCCCC1(N=[N+]=[N-])C(=O)c2ccccc2N(C)C1=O` (configuration not stated): the GI50 with SNB-75 was > 100 µM (inactive); in the experiment with LOX IMVI, 97.1 µM (inactive); in the experiment on SF-295, > 100 µM (inactive); in the experiment on PC-3 it was > 100 µM (inactive); in the experiment on HT-29 it was 40.1 µM (inactive); with SN12C, > 100 µM (inactive). Also, the GI50 in the experiment with NCI-H226, in the experiment on SF-539, in the experiment on TK-10, in the experiment with IGROV-1, in the experiment with COLO 205 and in the experiment on CAKI-1 was > 100 µM (inactive) each time. The GI50 with SK-OV-3 was > 100 µM (inactive); in the experiment with MDA-MB-435, 89.9 µM (inactive); in the experiment on BT-549, 88.5 µM (inactive); with M14 it was > 100 µM (inactive); in the experiment on NCI-H23 it was 48 µM (inactive).
